The target in data set [1] is T1, human A2AAR (Homo sapiens, UniProt P29274).
T1 construct: expressed in transfected cells; host or cells: CHO cells, crude membrane fractions
Description: Radioligand binding, displacement of [3H]NECA at human A2AAR in CHO cells. Conditions: for Selectivity A1/A2A / Selectivity A3/A2A: ratio of Ki values at human ARs; for Ki: [3H]-NECA displacement, human A2AAR in CHO cells, geometric mean with 95% confidence limits, read-out: Ki A2A. As to the method: The radioligand binding experiments were carried out exactly as described previously. For A1AR binding, 1 nM [^3H]CCPA was used as a radioligand, whereas 30 and 10 nM [^3H]NECA were used for A2A and A3 ARs, respectively. Nonspecific binding was determined in the presence of 1 mM theophylline (A1AR) or […] R-PIA (A2A and A3 ARs). Ki values were calculated from competition curves by nonlinear curve fitting with the program SCTFIT [31].
CHO cells stably transfected with human ARs were grown adherently and maintained in Dulbecco’s Modified Eagles Medium with nutrient mixture F12 (DMEM/F12) without nucleosides, containing 10% fetal calf serum, penicillin (100 U/mL), streptomycin (100 μg/mL), L-glutamine (2 mM), and Geneticin (G-418, 0.2 mg/mL) at 37 °C in 5% CO2/95% air, as described earlier. For radioligand binding studies and measurement of adenylyl cyclase activity, crude membrane fractions were prepared from fresh or frozen cells with two different protocols described earlier. The determination of adenylyl cyclase activity followed the procedure described earlier. IC50 values for the inhibition of adenylyl cyclase stimulated (in the case of A2BAR) with 5 μM NECA were calculated with the Hill equation and converted to Ki values with the Cheng and Prusoff equation [32].
[^3H]CCPA (2-chloro-N^6-cyclopentylAdo) and [^3H]NECA (5′-N-ethylcarboxamidoAdo) were used as specific radioligands at A1ARand A2A / A3 ARs, respectively. Furthermore, the ability of the same compounds to inhibit NECA-stimulated adenylyl cyclase activity was evaluated at the A2BAR subtype. The results of the binding studies (A1, A2A, and A3 ARs) and functional data (A2BAR) are reported in Table 1 as Ki or IC50 values in nM, together with the data on the reference compounds 1–3.
(In general: Loss of bound radioactivity is the signal in a displacement assay; it reports binding, not function.)

For data set [2], the target named is T1, human A2AAR. Description: GloSensor cAMP assay in CHO cells expressing human A2AAR. The class given is cell-based. Conditions: for cAMP production when tested alone (agonist behavior): A2AAR transfected CHO cells, compound alone, in comparison with NECA; for IC50: CHO cells expressing hA2AARs, GloSensor cAMP assay, mean ± standard error, read-out: IC50, inhibition of NECA-induced cAMP production. The method, then:
The performed GloSensorÏ cAMP assay is a non-radioactive method that offers a simple and powerful approach to monitor G-protein coupled receptor (GPCR) activity through change in the intracellular cAMP concentration.
Cell culture: CHO cells stably expressing human A2AAR were grown adherently and maintained in Dulbecco’s modified Eagle’s medium with nutrient mixture F12 (DMEM/F12 with phenol red), supplemented with 10% fetal bovine serum (FBS), 100 U mL^−1 penicillin, 100 µg mL^−1 streptomycin, 2.5 µg mL^−1 amphotericin, 1 mM sodium pyruvate and 0.1 mg mL^−1 geneticin (G418), at 37 °C and aerated with 5% CO2:95% […]. Cells were grown to approximately 70–80% confluence, and transient transfection with a plasmid encoding the biosensor was performed.
GloSensorÏ cAMP assay: Cells were harvested in CO2-independent medium and were counted in a Neubauer chamber. The desired number of cells was incubated in equilibration medium containing a 3% v/v GloSensor^TM cAMP reagent stock solution, 10% FBS, and 87% CO2 independent medium. After 2 h of incubation, the cells were dispensed in the wells of a 384-well plate and, when a steady-state basal signal was obtained, the NECA referent agonist or the understudy compounds, at different concentrations, were added. […] The antagonist profile was evaluated by assessing their ability to counteract an agonist-induced increase in cAMP accumulation. The cells were incubated in the reaction medium (10 min at room temperature) with different understudy molecule concentrations and then treated with NECA. After 10 min, various luminescence reads were performed at different incubation times.
Statistical analysis: Responses were expressed as a percentage of the maximal relative luminescence units (RLU). Concentration–response curves were fitted by a nonlinear regression with the Prism 4.0 program (GraphPAD Software, San Diego, CA, USA). To quantify the NECA agonist potency, the EC50 value was calculated. The EC50 value is the concentration of agonists required to produce 50% of the maximum effect. To evaluate the antagonist profile, the IC50 values were determined. The IC50 value is the concentration of antagonists that produces a 50% inhibition of the agonist effect. Each concentration was tested three times in triplicate, and the values are given as the mean ± standard error.
On the technique in general: Changes in cAMP serve as a functional read-out for many G protein-coupled receptors.

A further data set concerns 6-OHDA-lesioned rats. As to the kind of experiment: Potentiation of L-dopa-induced contralateral rotations in unilaterally 6-OHDA-lesioned rats. Conditions: 5 mg/kg i.p. with L-dopa 3 mg/kg i.p., turns in 2 h, versus L-dopa alone. It is filed as in vivo, rat. As to the method:
Rats (275–300 g) were anesthetized and placed on a David Kopf stereotaxic apparatus (Tujunga, CA, USA) and infused, using a stainless steel cannula, into the left medial forebrain bundle [coordinates A = −2.2, L = +1.5 from bregma, V = −7.9 from the dura, according to the atlas of Pellegrino et al. (1979) [34]] with 6-OHDA (8 μg/4 μL of saline containing 0.05% ascorbic acid). Rats were pretreated with desipramine (10 mg/kg i.p.) to prevent damage to noradrenergic neurons.
Rotational behavior was assessed in hemispherical bowls (50 cm diameter), with sawdust on the floor, in which each rat was connected to an automated rotameter system (Panlab s.l., Barcelona, Spain) capable of detecting the number of full (360°) rotations in both directions (ipsilateral and contralateral to the lesioned hemisphere). Rats were placed in the bowls 30 min before drug administration to acclimatize and extinguish any spontaneous rotational behavior, and both contralateral and homolateral rotations were measured in 10 min blocks for 120 min after drug injection. The total number of contralateral and homolateral rotations (mean ± SEM) in a 2 h testing period were calculated.
Potentiation of L-dopa-induced rotational behavior: two weeks after the unilateral 6-OHDA lesion, rats were screened based on their contralateral rotations in response to L-dopa (50 mg/kg i.p.) + benserazide (30 mg/ kg i.p.). Rats not showing at least 300 contralateral rotations during the 2 h testing period were eliminated from the study. Three days later, rats were administered with a subthreshold dose of L-dopa (3 mg/kg i.p.) + benserazide (6 mg/kg i.p.) in combination with the vehicle or with a dose of 5 mg/kg i.p of 1, 4, or 5. Compounds were administered simultaneously with L-dopa. Benserazide was always injected 30 min before L-dopa.
In the rotational behavior experiments, the mean and S.E.M. of the total number of contralateral rotations were calculated. Significant differences between groups were evaluated by one-way ANOVA followed by a Newman–Keuls post hoc test.

In another data set the test system is spontaneous motility. As to the kind of experiment: Spontaneous motility in rats. It is filed as in vivo, rat. The note with it: for Effect on spontaneous motility: 5 mg/kg i.p.; for Effect on motility at higher doses: 10 and 15 mg/kg.

Entries after “also recorded” stand apart in the source; their conditions may differ.

This note sets out measurements from PMC11898488, “A2A Adenosine Receptor Antagonists and Their Efficacy in Rat Models of Parkinson’s Disease” (Cells, 2025).

The IC50 is the midpoint of a concentration-inhibition curve. What is called Ki is the dissociation constant of the complex between target and ligand, obtained from inhibition or displacement.

T1 sequence (P29274 whole entry): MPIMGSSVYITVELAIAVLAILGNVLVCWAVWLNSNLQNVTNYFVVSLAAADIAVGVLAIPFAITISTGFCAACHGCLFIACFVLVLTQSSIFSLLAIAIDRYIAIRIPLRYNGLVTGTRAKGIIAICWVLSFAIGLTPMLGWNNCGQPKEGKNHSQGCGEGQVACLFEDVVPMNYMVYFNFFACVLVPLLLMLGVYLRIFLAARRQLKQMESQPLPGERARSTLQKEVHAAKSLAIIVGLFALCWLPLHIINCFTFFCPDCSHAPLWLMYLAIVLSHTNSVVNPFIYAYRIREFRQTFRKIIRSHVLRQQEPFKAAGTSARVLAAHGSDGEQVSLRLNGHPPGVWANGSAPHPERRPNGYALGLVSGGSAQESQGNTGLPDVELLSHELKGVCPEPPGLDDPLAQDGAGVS

With `CCn1c(Br)nc2c(N)nc(OCCc3ccccc3)nc21` [Compound 1, 8-bromo-9-ethyl-2-phenetoxyadenine], on human A2AAR [1], the “Selectivity A1/A2A” value worked out at 14 and the “Selectivity A3/A2A” value was 641. Moreover, at human A2AAR [2], the “cAMP production when tested alone (agonist behavior)” value (shortened to “cAMP production when tested alone”) is given as “not able to stimulate cAMP production; also recorded: no increase in cAMP production was detected” and the IC50 is 0.108 ± 0.023 µM. The “Number of contralateral rotations induced by subthreshold L-dopa” value (“Number” for short) with 6-OHDA-lesioned rats is on record as “did not increase”. Further, in the data set on spontaneous motility, the “Effect on spontaneous motility” value is on record as “did not modify spontaneous motility” and the “Effect on motility at higher doses” value was “caused hypermotility”.

As to `CCOc1nc2c(N)nc(OCCc3ccccc3)nc2n1CC` [Compound 4, 8-ethoxy-9-ethyl-2-phenethoxyadenine], at human A2AAR [1], the Ki came to 0.0037 µM, the “Selectivity A1/A2A” value is 23 and the “Selectivity A3/A2A” value came out at 97. Besides, on human A2AAR [2], the “cAMP production when tested alone” value was “not able to stimulate cAMP production; also recorded: no increase in cAMP production was detected” and the IC50 worked out at 0.278 ± 0.049 µM. Further, the “Number” value in the data set with 6-OHDA-lesioned rats is recorded as “significantly increased”. Further, in the data set on spontaneous motility, the “Effect on spontaneous motility” value is recorded as “did not modify spontaneous motility” and the “Effect on motility at higher doses” value is recorded as “caused hypermotility”.

Turning to `CCn1c(I)nc2c(N)nc(OCCc3ccccc3)nc21` [Compound 5, 9-ethyl-8-iodo-2-phenethoxy-9H-purin-6-amine], at human A2AAR [1], the Ki worked out at 0.0012 µM, the “Selectivity A1/A2A” value was found to be 21 and the “Selectivity A3/A2A” value was found to be 408. At human A2AAR [2], the “cAMP production when tested alone” value is “not able to stimulate cAMP production; also recorded: no increase in cAMP production was detected” and the IC50 was found to be 0.114 ± 0.025 µM. Besides, the “Number” value with 6-OHDA-lesioned rats is “significantly increased”. In the data set with spontaneous motility, the “Effect on spontaneous motility” value is listed as “did not modify spontaneous motility” and the “Effect on motility at higher doses” value is on record as “caused hypermotility”.
